Data reported in patent US11925166B2, “Cacao cell suspension protocol” (Mars, Incorporated, priority 2019, dated 2024).

System: fungi and bacteria on leaf explants
Experiment: Leaf disinfection of cacao leaf explants (hypochlorite under vacuum)
Design: species or system Theobroma cacao; cacao leaf disinfection: dose or concentration left out as unconfirmed
Protocol: The leaves were cleaned with soap and rinsed with distilled sterile water for three times. Afterwards, the leaves were cut in pieces in sizes of 2 cm^2, disinfected by immersion in alcohol 70% for five minutes, and rinsed three times with ultrapure sterile water. Then, the leaf explants were immersed in 1% calcium hypochlorite or 20% sodium hypochlorite for 50-60 minutes in vacuum condition (70 k-pascal) and rinsed 3-5 times with ultrapure sterile water.

SMILES: [Ca+2].[O-]Cl.[O-]Cl [calcium hypochlorite]
- leaf death after disinfection (high concentration of calcium hypochlorite): high percentage of leaf death
- cacao leaf disinfection (low concentration of calcium hypochlorite for 40 minutes, with vacuum): best treatment for cacao leaf disinfection
